The values that follow are results of earlier work, collected in patent US6060616A, “Bis-platinum complexes with polymethylene derivatives as ligands having antitumor activity” (Hoffmann-La Roche Inc., priority 1998, dated 2000).

The conditions of the data set: clinical use, background.

Regarding `N.N.O=C([O-])C1(C(=O)[O-])CCC1.[Pt+2]` [carboplatin, [Pt(NH3)2(CBDCA)]], the nephrotoxicity result is “reduction in the nephrotoxic effects”.
